Columns and labels:
[1] = Test Example 5: removal of hydrogen sulfide dissolved in water, 30 minutes stirring, methylene blue colorimetric method; settings: for residual hydrogen sulfide (in words): summary of Table 5
Procedure: Distilled water was bubbled with a hydrogen sulfide gas. Thus, a solution containing dissolved hydrogen sulfide (5 mgS/l) was prepared. The solution was placed in separate beakers. Then, formulations that were prepared in accordance with Test example 4 were separately added thereto in a manner such that the concentration of each test compound became 500 ppm, followed by stirring for 30 minutes using a stirrer. Thereafter, the residual hydrogen sulfide concentration was measured. The measurement was carried out using “Pack Tests” (Kyoritsu Chemical-Check Lab., Corp.) in accordance with a methylene blue colorimetric method.

[2] = Test Example 2: removal of methyl mercaptan gas by formulation in closed bag, detector tube; settings: for Methyl mercaptan gas concentration: 1 ml formulation, methyl mercaptan gas at 500 ppm; for effect of removing methyl mercaptan (in words): summary of Table 2
Procedure: A formulation containing BNPA was previously prepared in accordance with Formulation example 1. With the use of DBNE and BNP instead of BNPA, formulations containing DBNE and BNP, respectively, were prepared, in accordance with formulation example 1. Each formulation (1 ml) was dispensed into a glass petri dish covered with a plastic bag. Then, each plastic bag was closed after being filled with methyl mercaptan gas at 500 ppm. The methyl mercaptan gas was allowed to come into contact with the formulation for a given time. Thereafter, the methyl mercaptan gas concentration was measured using a detector tube.

[3] = Test Example 1: removal of hydrogen sulfide from hexane, FPD gas chromatography; settings: for Test sample A Hydrogen sulfide concentration: 100 ppm hydrogen sulfide, 100 ppm compound; for effect of removing hydrogen sulfide (in words): summary of Table 1
Procedure: Two 200-ml four-neck flasks were provided. Hexane (100 ml) was placed in the flask equipped with a bubbling device. In the other flask, iron sulfide underwent a reaction with the dropwise addition of hydrochloric acid, resulting the generation of hydrogen sulfide. Then, hexane was subjected to bubbling with hydrogen sulfide that had been transferred via a tube. Thus, test samples at a hydrogen sulfide concentration of 100 ppm were prepared. The measurement of hydrogen sulfide concentration was carried out by FPD gas chromatography (using a flame photometric detector). Stock solution of BNPA, DBNE, and BNP (100 ppm each) were separately added to the test samples, followed by stirring for a given period of time. The hydrogen sulfide concentration of each sample was measured in a time-dependent manner.

[4] = Test Example 4: removal of hydrogen sulfide gas by formulation in closed bag, detector tube; settings: for Hydrogen sulfide concentration: 1 ml formulation, 1 liter hydrogen sulfide gas at 500 ppm; for removal of hydrogen sulfide gas (in words): summary of Table 4
Procedure: A formulation containing BNPA was previously prepared in accordance with Formulation example 1. With the use of BNP instead of BNPA, a formulation containing BNP was prepared in accordance with formulation example 1.
Iron sulfide and hydrochloric acid were allowed to react with each other, resulting in the generation of hydrogen sulfide. Thus, hydrogen sulfide gas at a concentration of 500 ppm was prepared. Each formulation (1 ml) was placed in a glass petri dish covered with a plastic bag. Then, each plastic bag was closed after being filled with 1 liter of hydrogen sulfide gas. At 24 and 48 hours later, the hydrogen sulfide gas concentration was measured using a detector tube.

[5] = Test Example 3: removal of hydrogen sulfide dissolved in water, methylene blue colorimetric method; settings: for removal of hydrogen sulfide dissolved in water (in words): summary of Table 3; for Residual hydrogen sulfide concentration: water, test compound 500 ppm, stirring for 10 minutes, ND = complete removal
Procedure: Distilled water was bubbled with hydrogen sulfide gas. Thus, a hydrogen sulfide-dissolved solution (5 mgS/l) was prepared. The solution was placed in separate beakers. Then, formulations that were prepared in accordance with Test example 2 were separately added thereto in a manner such that the concentration of each test compound became 500 ppm, followed by stirring for 10 minutes. Thereafter, the residual hydrogen sulfide concentration was measured. The measurement was carried out using “Pack Tests” (Kyoritsu Chemical-Check Lab., Corp.) in accordance with a methylene blue colorimetric method.

| Compound | residual hydrogen sulfide (in words) [1] | Residual hydrogen sulfide concentration ([1]; water 5 mgS/l, test compound 500 ppm, stirring for 30 minutes, ND = no hydrogen sulfide observed) [mgS/l] | Methyl mercaptan gas concentration ([2]; contact time 0 hours) [ppm] | Methyl mercaptan gas concentration ([2]; contact time 24 hours) [ppm] | Methyl mercaptan gas concentration ([2]; contact time 48 hours) [ppm] | effect of removing methyl mercaptan (in words) [2] | Test sample A Hydrogen sulfide concentration ([3]; contact time 0 minutes) [ppm] | Test sample A Hydrogen sulfide concentration ([3]; contact time 10 minutes) [ppm] | Test sample A Hydrogen sulfide concentration ([3]; contact time 30 minutes) [ppm] | Test sample A Hydrogen sulfide concentration ([3]; contact time 60 minutes) [ppm] | effect of removing hydrogen sulfide (in words) [3] | Hydrogen sulfide concentration ([4]; contact time 0 hours) [ppm] | Hydrogen sulfide concentration ([4]; contact time 24 hours) [ppm] | Hydrogen sulfide concentration ([4]; contact time 48 hours) [ppm] | removal of hydrogen sulfide gas (in words) [4] | removal of hydrogen sulfide dissolved in water (in words) [5] | Residual hydrogen sulfide concentration [5] [mgS/l] |
| --- | --- | --- | --- | --- | --- | --- | --- | --- | --- | --- | --- | --- | --- | --- | --- | --- | --- |
| O=[N+]([O-])C(Br)(CO)CO [BNP, 2-bromo-2-nitro-1,3-propanediol] | residual hydrogen sulfide was observed | 1 | 500 | 485 | 461 | almost no effect of removing methyl mercaptan | 100 | 81 | 77 | 68 | the removal efficiency was poor | 500 | 480 | 470 | complete removal was not achieved | very low capacity for removing hydrogen sulfide | 18 |
| CC(=O)OCC(Br)(COC(C)=O)[N+](=O)[O-] [BNPA, 2-bromo-2-nitropropane-1,3-diyl diacetate] | no hydrogen sulfide was observed | – | 500 | 283 | 0 | complete removal of methyl mercaptan gas was achieved after 48 hours | 100 | 38 | 14 | 2 | had an effect of removing hydrogen sulfide | 500 | 210 | 0 | complete removal of hydrogen sulfide was achieved after 48 hours | complete removal of hydrogen sulfide | – |
| O=[N+]([O-])C(Br)(Br)CO [DBNE, 2,2-dibromo-2-nitroethanol] | – | – | 500 | 358 | 29 | confirmed to have the effect of removing methyl mercaptan | 100 | 42 | 25 | 11 | had an effect of removing hydrogen sulfide | – | – | – | – | confirmed to have an effect of removing hydrogen sulfide | 5 |

Reference: patent US20070205140A1, “Method of Removing Sulfides Including Hydrogen Sulfide and Mercaptan” (K - I CHEMICAL INDUSTRY CO., LTD., priority 2004, published 2007)
